Experiments:
[1] = test system: human myeloid leukemia cell line MV4-11; assay: Cell proliferation test (Cell Titer-Glo), MV4-11; format: cell-based; conditions: MV4-11 cells, Ara-C alone
Procedure: (§1) The cell proliferation test was performed using human myeloid leukemia cell line U-937 (ATCC, CRL-1593.2), MOLM-13 (DSMZ, ACC 554), HL60 (ATCC, CRL-240), SKM-1 (JCRB cell bank, JCRB0118), OCI-M2 (DSMZ, ACC 619), NOMO-1 (JCRB cell bank, IFO050474), MV4-11 (ATCC, CRL-9591), THP1 (ATCC, TIB-202), and human peripheral blood mononuclear cell PBMC (CTL, CTL-UP-1). As the culture medium of U-937 cells, MOLM-13 cells, HL60 cells, SKM-1 cells, OCI-M2 cells, NOMO-1 cells, MV4-11 cells, and THP1 cells, RPMI1640 (FUJIFILM Wako Pure Chemical Corporation, 189-02025) added with 10% fetal bovine serum (Thermo Fisher Scientific, Inc., 10437-028) and 1% penicillin-streptomycin (10,000 U/mL, Thermo Fisher Scientific, Inc., 15140-122) was used. […] After culturing overnight, 5 μL of FLA3527, ASLAN003, BAY2402234, or cytarabine (Ara-C, C2035, Tokyo Chemical Industry Co., Ltd.) at the predetermined concentration was added, and 3 days later, 25 μL of Cell Titer-Glo (registered trade mark) luminescent cell viability assay (Promega Corporation, G7573) was added, and the light emission amount was measured using an Envision plate reader (PerkinElmer, Inc.). […] The proliferation inhibition concentration for each compound concentration was calculated by the following expression. […]
(§2) The CI indicating the combined effect of Ara-C and the DHODH inhibitor compound was calculated using the software CalcuSyn of Biosoft.

[2] = test system: human myeloid leukemia cell line THP1; assay: Cell proliferation test (Cell Titer-Glo), THP1; format: cell-based; conditions: THP1 cells, cytarabine alone
Procedure: as §1, §2

## Nc1ccn([C@@H]2O[C@H](CO)[C@@H](O)[C@@H]2O)c(=O)n1 [Ara-C, cytarabine]
[1]
  Ara-C sensitivity of the cell line: sensitive
[2]
  cytarabine sensitivity of the cell line: insensitive

— patent publication US11890296B2, “Anti-tumor agent containing cytarabine, anti- tumor effect enhancing agent which is used in combination with cytarabine, anti-tumor kit, and anti-tumor agent which is used in combination with cytarabine” (priority 2018, dated 2024)
